Experimental data: patent US9155714B2, “Compositions comprising an aromatic alcohol and a TRPV-1 antagonist, and uses thereof” (JOHNSON & JOHNSON CONSUMER INC., priority 2013, dated 2015)
Values joined by “and” are separate entries in the source; they are usually repeats but may differ in a detail not shown here. Equal entries are not always repeated.

Experiments:
Type in all cases: cell-based
[1] = molecular target: T1, human vanilloid receptor-1 (TRPV-1) (Homo sapiens, UniProt Q8NER1); assay: Calcium Flux Test, inhibition of phenoxyethanol-induced calcium flux
T1 construct: host or cells: HEK293
Method: (§1) The Calcium Flux Test is performed in the following manner: Recombinant HEK293 cells expressing human vanilloid receptor-1 (TRPV-1; accession number AF196175, EMD Millipore, Billerica, Mass.) are grown in D-MEM/F-12 media (Life Technologies, Grand Island, N.Y.) supplemented with 10% fetal bovine serum, 1% non essential amino acids and 400 μg/mL Geneticin (Gibco, Life Technologies). Cells are plated at a concentration of 15,000 cells per well on poly-D-lysine-coated 384 well plates and incubated overnight at 5% CO2 and 37° C. After incubation, culture media is removed from the wells and replaced with 50 μL per well of Fluo-8 No Wash dye solution (#36315, AAT Bioquest, Sunnyvale, Calif.). The Fluo-8 dye solution is prepared by mixing 20 uL of Fluo-8 NW with 30 mL of 0.33× Pluronic® F127 Plus (BASF of Ludwigshafen, Germany) in assay buffer (1×HBSS+2% of HEPES). Fluo-8 dye is incubated for 30 minutes at room temperature. Intracellular calcium (Ca^2+) flux is monitored upon exposure to aromatic alcohol in DMSO vehicle by measuring fluorescence intensity at Ex/Em 490/525 on a Functional Drug Screening System (FDSS; Hamamatsu, […]). Measurements are taken every second for a period of 4 minutes. […] Statistical differences are obtained using One Way ANOVA with Tukey Post-hoc test; statistical significance is defined as P≦0.05.
(§2) The Maximum RFU obtained with a given concentration of aromatic alcohol is compared with the Maximum RFU obtained using the same concentration of aromatic alcohol but pretreated with the TRPV-1 antagonist for 5 minutes after dye incubation. Percent inhibition achieved with the TRPV-1 antagonist is calculated as: 100*((Maximum RFU of aromatic alcohol−Maximum RFU of aromatic alcohol pretreated with TRPV-1 antagonist)/Maximum RFU of aromatic alcohol).
(§3) Capsazepine and AMG9810 were tested for activity as TRPV-1 antagonists using the Calcium Flux Test using two different concentrations of phenoxyethanol in DMSO. They were also tested using the Calcium Flux Test in which phenoxyethanol was replaced with capsaicin. […]

[2] = molecular target: T1, human vanilloid receptor-1 (TRPV-1); assay: Calcium Flux Test, phenoxyethanol replaced with capsaicin (capsaicin-induced calcium flux)
Method: as §1, §2, §3

[3] = molecular target: T1, human vanilloid receptor-1 (TRPV-1); assay: Calcium Flux Test, inhibition of benzyl alcohol-induced calcium flux; details: 10 uM capsazepine
Method: as §1, §2
Capsazepine was tested for activity as a TRPV-1 antagonist with different concentrations of benzyl alcohol in DMSO as described in Example 2. […]

[4] = molecular target: T1, human vanilloid receptor-1 (TRPV-1); assay: Calcium Flux Test, inhibition of phenethyl alcohol-induced calcium flux; details: 10 uM capsazepine; for inhibition at 10 µM: read-out: (column without head; percent inhibition)
Method: as §1, §2
Capsazepine was tested for activity as a TRPV-1 antagonist with different concentrations of phenethyl alcohol in DMSO as described in Example 2. […]

[5] = capsazepine 0.6104 nM, phenoxyethanol 2 mM
[6] = capsazepine 0.6104 nM, phenoxyethanol 3 mM
[7] = capsazepine 2 nM, phenoxyethanol 2 mM
[8] = capsazepine 10 nM, phenoxyethanol 2 mM
[9] = capsazepine 10 nM, phenoxyethanol 3 mM
[10] = capsazepine 39 nM, phenoxyethanol 2 mM
[11] = capsazepine 39 nM, phenoxyethanol 3 mM
[12] = capsazepine 156 nM, phenoxyethanol 2 mM
[13] = capsazepine 156 nM, phenoxyethanol 3 mM
[14] = capsazepine 625 nM, phenoxyethanol 2 mM
[15] = capsazepine 625 nM, phenoxyethanol 3 mM
[16] = capsazepine 2500 nM, phenoxyethanol 2 mM
[17] = capsazepine 2500 nM, phenoxyethanol 3 mM
[18] = capsazepine 10000 nM, phenoxyethanol 2 mM
[19] = capsazepine 10000 nM, phenoxyethanol 3 mM
[20] = capsazepine 2 nM, capsaicin 300 nM
[21] = capsazepine 10 nM, capsaicin 100 nM
[22] = capsazepine 10 nM, capsaicin 300 nM
[23] = capsazepine 39 nM, capsaicin 100 nM
[24] = capsazepine 39 nM, capsaicin 300 nM
[25] = capsazepine 156 nM, capsaicin 100 nM
[26] = capsazepine 156 nM, capsaicin 300 nM
[27] = capsazepine 625 nM, capsaicin 100 nM
[28] = capsazepine 625 nM, capsaicin 300 nM
[29] = capsazepine 2500 nM, capsaicin 100 nM
[30] = capsazepine 2500 nM, capsaicin 300 nM
[31] = capsazepine 10000 nM, capsaicin 100 nM
[32] = capsazepine 10000 nM, capsaicin 300 nM

T1 sequence (Q8NER1 whole entry): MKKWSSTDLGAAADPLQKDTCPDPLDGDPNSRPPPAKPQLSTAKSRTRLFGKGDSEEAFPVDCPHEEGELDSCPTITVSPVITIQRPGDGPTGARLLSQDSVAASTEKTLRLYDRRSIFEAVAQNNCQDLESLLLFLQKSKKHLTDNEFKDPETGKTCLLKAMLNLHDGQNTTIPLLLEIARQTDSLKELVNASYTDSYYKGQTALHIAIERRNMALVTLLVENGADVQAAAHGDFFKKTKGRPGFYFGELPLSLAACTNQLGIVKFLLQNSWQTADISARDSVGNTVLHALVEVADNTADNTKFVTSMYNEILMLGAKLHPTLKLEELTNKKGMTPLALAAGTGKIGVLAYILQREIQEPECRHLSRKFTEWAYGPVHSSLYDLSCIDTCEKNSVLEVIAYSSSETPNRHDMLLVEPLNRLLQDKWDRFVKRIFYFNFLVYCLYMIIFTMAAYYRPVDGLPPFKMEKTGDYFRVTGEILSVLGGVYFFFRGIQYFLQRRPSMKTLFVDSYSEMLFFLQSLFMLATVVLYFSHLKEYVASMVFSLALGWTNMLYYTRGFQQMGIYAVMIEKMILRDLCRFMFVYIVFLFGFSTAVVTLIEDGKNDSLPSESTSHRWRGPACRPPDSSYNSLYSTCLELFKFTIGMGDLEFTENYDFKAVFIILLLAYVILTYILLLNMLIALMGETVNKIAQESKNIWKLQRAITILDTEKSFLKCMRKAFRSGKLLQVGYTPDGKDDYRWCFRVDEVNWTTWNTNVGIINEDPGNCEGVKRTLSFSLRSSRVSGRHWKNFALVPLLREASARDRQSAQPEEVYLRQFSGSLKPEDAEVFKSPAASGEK

## Oc1cc2c(cc1O)CN(C(=S)NCCc1ccc(Cl)cc1)CCC2 [Capsazepine, capsazepine]
[1]; capsazepine 0.1526 nM, phenoxyethanol 2 mM
  Maximum RFU (mean ± SD): 319.33 ± 77.43 RFU
[1]; capsazepine 0.1526 nM, phenoxyethanol 3 mM
  Maximum RFU (mean ± SD): 508.45 ± 81.79 RFU
[1]; [5]
  Maximum RFU (mean ± SD): 210.03 ± 46.34 RFU
  inhibition at 0.0006104 µM: 26.8%
[1]; [6]
  Maximum RFU (mean ± SD): 351.36 ± 32.21 RFU
  inhibition at 0.0006104 µM: 20.5%
[1]; [7]
  Maximum RFU (mean ± SD): 236.10 ± 8.91 RFU
  inhibition at 0.002 µM: 17.7%
[1]; capsazepine 2 nM, phenoxyethanol 3 mM
  Maximum RFU (mean ± SD): 486.75 ± 153.02 RFU
[1]; [8]
  Maximum RFU (mean ± SD): 154.95 ± 19.56 RFU
  inhibition at 0.01 µM: 46%
[1]; [9]
  Maximum RFU (mean ± SD): 340.96 ± 12.96 RFU
  inhibition at 0.01 µM: 22.8%
[1]; [10]
  Maximum RFU (mean ± SD): 75.06 ± 6.64 RFU
  inhibition at 0.039 µM: 73.8%
[1]; [11]
  Maximum RFU (mean ± SD): 176.52 ± 75.37 RFU
  inhibition at 0.039 µM: 60%
[1]; [12]
  Maximum RFU (mean ± SD): 87.54 ± 8.38 RFU
  inhibition at 0.156 µM: 69.5%
[1]; [13]
  Maximum RFU (mean ± SD): 101.59 ± 2.44 RFU
  inhibition at 0.156 µM: 77%
[1]; [14]
  Maximum RFU (mean ± SD): 57.76 ± 2.15 RFU
  inhibition at 0.625 µM: 79.9%
[1]; [15]
  Maximum RFU (mean ± SD): 75.71 ± 3.39 RFU
  inhibition at 0.625 µM: 82.9%
[1]; [16]
  Maximum RFU (mean ± SD): 84.79 ± 2.68 RFU
  inhibition at 2.5 µM: 70.5%
[1]; [17]
  Maximum RFU (mean ± SD): 99.71 ± 6.08 RFU
  inhibition at 2.5 µM: 77.4%
[1]; [18]
  Maximum RFU (mean ± SD): 79.39 ± 2.79 RFU
  inhibition at 10 µM: 72.3%
[1]; [19]
  Maximum RFU (mean ± SD): 106.49 ± 4.15 RFU
  inhibition at 10 µM: 75.9%
[2]; capsazepine 2 nM, capsaicin 100 nM
  Maximum RFU (mean ± SD): 665.83 ± 90.25 RFU
[2]; [20]
  Maximum RFU (mean ± SD): 850.93 ± 28.65 RFU
  inhibition at 0.002 µM: 1.16%
[2]; [21]
  Maximum RFU (mean ± SD): 461.29 ± 221.27 RFU
  inhibition at 0.01 µM: 28.7%
[2]; [22]
  Maximum RFU (mean ± SD): 771.64 ± 25.92 RFU
  inhibition at 0.01 µM: 10.4%
[2]; [23]
  Maximum RFU (mean ± SD): 187.95 ± 177.88 RFU
  inhibition at 0.039 µM: 71%
[2]; [24]
  Maximum RFU (mean ± SD): 557.38 ± 79.48 RFU
  inhibition at 0.039 µM: 35.3%
[2]; [25]
  Maximum RFU (mean ± SD): 29.36 ± 6.46 RFU
  inhibition at 0.156 µM: 95.5%
[2]; [26]
  Maximum RFU (mean ± SD): 51.20 ± 14.34 RFU
  inhibition at 0.156 µM: 94%
[2]; [27]
  Maximum RFU (mean ± SD): 24.39 ± 5.19 RFU
  inhibition at 0.625 µM: 96.2%
[2]; [28]
  Maximum RFU (mean ± SD): 28.36 ± 3.16 RFU
  inhibition at 0.625 µM: 96.7%
[2]; [29]
  Maximum RFU (mean ± SD): 27.61 ± 4.95 RFU
  inhibition at 2.5 µM: 95.7%
[2]; [30]
  Maximum RFU (mean ± SD): 31.08 ± 3.44 RFU
  inhibition at 2.5 µM: 96.4%
[2]; [31]
  Maximum RFU (mean ± SD): 45.31 ± 14.17 RFU
  inhibition at 10 µM: 93%
[2]; [32]
  Maximum RFU (mean ± SD): 58.73 ± 4.40 RFU
  inhibition at 10 µM: 93.2%
[3]; benzyl alcohol 0 % w/v
  Maximum RFU: 13.30 RFU and 18.24 ± 1.3 RFU
[3]; benzyl alcohol 0.00000199 % w/v
  Maximum RFU: 11.32 RFU and 18.74 ± 2.18 RFU
[3]; benzyl alcohol 0.00000598 % w/v
  Maximum RFU: 9.46 RFU and 16.77 ± 1.48 RFU
[3]; benzyl alcohol 0.0000538 % w/v
  Maximum RFU: 10.90 RFU and 18.44 ± 0.07 RFU
[3]; benzyl alcohol 0.001452 % w/v
  Maximum RFU: 11.63 RFU and 15.7 ± 2.1 RFU
[3]; benzyl alcohol 0.004357 % w/v
  % Inhibition: 72.51%
  Maximum RFU: 8.14 RFU and 15.33 ± 1 RFU
  inhibition at 10 µM: 74.2%
[3]; benzyl alcohol 0.013072 % w/v
  % Inhibition: 82.58%
  inhibition at 10 µM: 88.8%
[3]; benzyl alcohol 0.04 % w/v
  % Inhibition: 93.23%
  Maximum RFU: 18.82 RFU and 28.72 ± 1.5 RFU
  inhibition at 10 µM: 95.4%
[3]; benzyl alcohol 6.64E−07 % w/v
  Maximum RFU: 11.79 RFU and 18.24 ± 2.53 RFU
[4]; phenethyl alcohol 0 % w/v
  Maximum RFU: 13.44 RFU and 17.46 ± 0.4 RFU
[4]; phenethyl alcohol 0.000002 % w/v
  Maximum RFU: 12.76 RFU and 18.03 ± 3.35 RFU
[4]; phenethyl alcohol 0.000006 % w/v
  Maximum RFU: 13.70 RFU and 18 ± 0.75 RFU
[4]; phenethyl alcohol 0.000018 % w/v
  Maximum RFU: 13.60 RFU and 18.18 ± 0.59 RFU
[4]; phenethyl alcohol 0.00016 % w/v
  Maximum RFU: 11.64 RFU and 19.48 ± 0.51 RFU
[4]; phenethyl alcohol 0.00048 % w/v
  Maximum RFU: 11.71 RFU and 20.58 ± 0.6 RFU
[4]; phenethyl alcohol 0.0015 % w/v
  Maximum RFU: 11.68 RFU and 18.5 ± 0.5 RFU
  inhibition at 10 µM: 54.3%
[4]; phenethyl alcohol 0.0044 % w/v
  (column without head; percent inhibition): 56.15% and 80.22%
  Maximum RFU: 11.56 RFU and 15.66 ± 0.4 RFU
[4]; phenethyl alcohol 0.013 % w/v
  (column without head; percent inhibition): 93.84%
  inhibition at 10 µM: 96.3%
[4]; phenethyl alcohol 0.04 % w/v
  (column without head; percent inhibition): 91.52%
  Maximum RFU: 26.42 RFU and 39.89 ± 5.81 RFU
  inhibition at 10 µM: 94%
[4]; phenethyl alcohol 0.12 % w/v
  (column without head; percent inhibition): 37.18%
  Maximum RFU: 345.95 RFU and 364.66 ± 13.76 RFU
  inhibition at 10 µM: 42.9%
